In US20110076331A1, “Use of Deuterium Oxide as an Elastase Inhibitor” (priority 2008, published 2011):

Tests used:
Syrian Gold hamsters = test: D2O aerosols in an animal model of COPD (HNE-induced hemorrhage); format: in vivo, hamster
Procedure: The employed H2O was distilled and ion-exchanged. Both D2O and H2O were sterile. A Pari LC Plus universal atomizer (PARI GmbH, Starnberg, Germany) was used for aerosolization combined with a Pari universal compressor, which generated 200 mg/min polydispersed aerosol with an average particle size (median diameter) of 2.5 μm for pure H2O and pure D2O and 2.5-4.5 μm for H2O and D2O with additional non-pharmaceutical and/or pharmaceutical agents (operating pressure 2.0 bar, flow rate of the compressor air was 6.0 L/min). The particle size measurement occurred with dynamic light scattering in a flow cell. Aerosol generation occurred at a temperature of 37° C. by corresponding thermostating of the atomizer in a water bath thermostat.
Male Syrian Gold hamsters (average weight 105 g±8 g) were divided into two groups (experimental group and control group) of six hamsters each. The animals of both groups were anesthetized intraperitoneally (ketamine 95 mg/kg and xylazine 17 mg/kg) and then intubated endotracheally by direct laryngoscopy. Both groups received 100 μL of human neutrophil elastase (500 μg/mL in sterile 0.9% NaCl solution) instilled. […] For BAL 2.5 mL 0.9% NaCl solution was repeatedly instilled (total of three times) and the hemoglobin concentration then determined in the instillate speetrophotometrically. […] For the experimental group an average hemoglobin value of 120±20 mOD was measured. […]

[1] = test system: subjects with colds accompanied by severe nasal obstruction; test: Decongestion of nasal mucosa (rhinomanometry); format: in vivo, human; details: one pump spray of D2O saline in each nostril
Procedure: Physiological saline was prepared from D2O (experiment group) and H2O (control group) and filled into a pump spray container as is ordinarily used to release nasal spray. Subjects with colds accompanied by severe nasal obstruction were divided into two groups of eight subjects each. Air flow through the nose was determined by rhinomanometry (initial value) in each subject right before treatment (after thorough removal of secretions). The subjects of the experimental group then each received one pump spray of D2O saline in each nostril, while the subjects of the control group received H2O saline instead in the same amount. Thirty and 60 minutes after application air flow was determined in each subject by rhinomanometry and the percent change of air flow relative to the initial value was calculated. From these values an average was formed for the verum and control groups (average percentage change in air flow <Lf%>). A positive value of <Lf%> indicates an increase, a negative value a reduction in air flow. For the experimental group after 30 minutes a value of <Lf%>=20±5% and after 60 minutes <Lf%>=90±10% was obtained. The control group gave <Lf%>=10±5% after 30 minutes and <Lf%>=5±5% after 60 minutes.

[2] = target: T1, human neutrophil elastase (HNE) (Homo sapiens, UniProt P08246); test: Inhibition of AAPV conversion by human neutrophil elastase (photometric, 405 nm); format: biochemical
T1 sequence (P08246 30-267): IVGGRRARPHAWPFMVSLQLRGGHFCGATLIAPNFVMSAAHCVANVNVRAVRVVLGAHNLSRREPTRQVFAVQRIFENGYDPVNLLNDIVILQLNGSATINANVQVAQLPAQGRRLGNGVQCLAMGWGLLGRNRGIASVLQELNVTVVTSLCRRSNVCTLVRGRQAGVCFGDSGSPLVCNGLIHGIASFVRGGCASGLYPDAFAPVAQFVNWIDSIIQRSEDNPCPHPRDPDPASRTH
Procedure: Measurement of AAPV conversation occurred spectrophotometrically at a wavelength of 405 nm.
HNE was incubated together with the synthetic substrate N-methoxysuccinyl-Ala-Ala-Pro-Val-p-nitroanilide (AAPV). Conversion of AAPV was then determined photometrically at 405 nm. The following incubation scheme was used: • Sample 1) HNE IN D2O with AAPV in D2O; • Sample 2) HNE in D2O with AAPV in H2O; • Sample 3) HNE in H2O with AAPV in D2O; • Control: HNE in H2O with AAPV in H2O.
The enzyme and substrate were each incubated for 60 minutes with H2O or D2O before HNE and AAPV were added together. The amount of D2O in the experiments was varied over a range from 10 to 100% in order to detect the dependence of inhibition of AAPV conversion by HNE.
A half-maximum effective dose was determined at a D2O content of about 40 vol %. At 100% D2O in the mixture an inhibition of AAPV conversion of about 70% was achieved.

half-maximum effective dose (D2O content) for inhibition of AAPV conversion ([2]; D2O amount in the mixture of HNE and AAPV, 60 minutes preincubation): about 40 vol %
inhibition of AAPV conversion ([2]; at 100% D2O in the mixture): about 70%
Compound: [2H]O[2H] [D2O, deuterium oxide]
inhibition of acute lung damage caused by elastase (hemorrhage) (Syrian Gold hamsters; D2O aerosol 24 hours, from reduction in hemoglobin concentration vs H2O aerosol control group): 60%
average hemoglobin value in BAL (Syrian Gold hamsters; continuous D2O aerosol in respiration air for 24 hours after HNE instillation): 120±20 mOD
average percentage change in air flow <Lf%> ([1]; after 30 minutes): 20±5%
average percentage change in air flow <Lf%> ([1]; after 60 minutes): 90±10%
